The assay has as its target T1, ArsR (Helicobacter pylori, UniProt O24973).
T1 construct: expressed in E. coli BL21(DE3)
Kind of assay: isothermal titration calorimetry. It counts as binding. Particulars: read-out: ITC ^a / Kd. A general note: In ITC the heat of successive injections is recorded.

Structures can show the parent of a compound that is named as a salt.

T1 sequence (O24973 whole entry): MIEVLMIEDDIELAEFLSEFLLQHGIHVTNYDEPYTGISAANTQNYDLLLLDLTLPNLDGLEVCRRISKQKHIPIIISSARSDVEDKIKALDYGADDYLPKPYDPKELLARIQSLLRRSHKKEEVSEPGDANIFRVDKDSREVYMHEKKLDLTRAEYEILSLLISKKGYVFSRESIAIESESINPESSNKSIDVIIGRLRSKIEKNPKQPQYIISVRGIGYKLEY

Take `CC[N+](C)(CC)CCC[n+]1c(-c2ccccc2)c2cc(N)ccc2c2ccc(N)cc21` [Propidium iodide]: the Kd was 18 µM. For `C[C@H](CCC(=O)O)[C@H]1CC[C@H]2[C@@H]3CC[C@@H]4C[C@H](O)CC[C@]4(C)[C@H]3CC[C@]12C` [Lithocholic acid], the Kd worked out at 4.9 µM. `CCCCCN(CCCCC)C(=O)C(CCC(=O)O)NC(=O)c1ccc(Cl)c(Cl)c1` (stereo not drawn) [Lorglumide sodium salt]: the Kd came to 0.67 µM.

The values above are taken from article PMC7232201 (Microorganisms, 2020).
